Source: patent US20040106673A1, “Compositions and methods for inhibiting proliferation in human prostate cancer cells” (priority 2002, published 2004)
Where “and” joins values, the source holds several entries; their conditions need not be identical. Identical values can stand only once.

Assays:
LNCaP cells [1] = test: Number of viable LNCaP cells (trypan blue exclusion); type: cell-based, human; conditions: for effect on LNCaP cell growth (FIG. 2): TPA alone 0.32 nM, ATRA alone 0.5 to 10 μM, or 0.32 nM TPA with increasing ATRA
Method: LNCaP cells were seeded in culture dishes and incubated for 24 hours to allow the cells to attach to the culture dishes. The cells were then treated with ethanol (2 μl/ml) or TPA in ethanol (0.2 to 10 ng/ml) for 96 hours.
The number of viable and dead cells was determined by trypan blue exclusion. […] The concentration of TPA that caused a 50% inhibition of LNCaP cell growth was 3 nM (IC50). The IC50 for TPA varied between 1 and 3 nM in different experiments.
(§1) LNCaP cells were obtained from the American Type Culture Collection (Rockville, Md., USA). TPA was obtained from Alexis Co. (San Diego, Calif.). ATRA was obtained from Sigma Chemical Co. (St. Louis, Mo.). LNCaP cells were maintained in RPMI-1640 culture medium containing 10% fetal bovine serum that was supplemented with penicillin (100 units/ml), streptomycin (100 μg/ml) and L-glutamine (300 μg/ml) as described (Zheng, X. et al. 2000. Oncol. Res. 12:419=427). Cultured cells were grown at 37° C. in a humidified atmosphere of 5% CO2 and were passed twice a week. In all experiments, LNCaP cells were initially seeded at a density of 1×10^5 cells/ml in a final volume of 2 or 5 ml in 35 or 60 mm tissue culture dishes, respectively.
To quantify the number of viable cells after each treatment, cells were counted using a hemacytometer under a light microscope. Cell viability was determined by the trypan blue exclusion assay, which was done by mixing 80 μl of cell suspension and 20 μl of 0.4% trypan blue solution for 2 minutes.

LNCaP tumors [2] = test: Mitotic cells and caspase 3 (active form) immunostaining in LNCaP tumors from treated mice; type: in vivo, male NCr mice; conditions: mice treated for 46 days
Method: (§2) Tumor size and body weight were measured daily.
Tumor sections used were stained by the horseradish peroxidase-conjugated-avidin method. Endogenous peroxidase was blocked by incubating the tissue sections in 3% hydrogen peroxide in methanol for 30 minutes at room temperature. Sections were then treated with 0.01 M sodium citrate buffer (pH 6.0) in a microwave oven at high temperature for 10 minutes. The sections were incubated with a protein block (normal goat serum) for 10 minutes, followed by avidin D for 15 minutes and biotin blocking solution for 15 minutes at room temperature. The sections were incubated with caspase 3 primary antibody (1:2000 dilution) for 30 minutes at room temperature followed by incubation with a biotinylated anti-rabbit secondary antibody for 30 minutes and incubation with conjugated-avidin solution for 30 minutes. Color development was achieved by incubation with 0.02% 3,3′-diaminobenzidine tetrahydrochloride containing 0.02% hydrogen peroxide for 10 minutes at room temperature. The slides were then counterstained with hematoxylin, dehydrated and coverslips were added for permanent mounting. A positive reaction was shown as a light brown to dark brown precipitate in the cytoplasm and/or perinuclei of the cells.

LNCaP tumors [3] = test: Second in vivo study: TPA, ATRA or both i.p. in NCr mice with LNCaP tumors, 21 or 46 days; conditions: for % of Mice with Tumor Growth / % of Mice with Tumor Regression: i.p.; for percent of initial tumor size: TPA 0.16 nmol/g
Method: Tumor cell growth was measured and expressed as percent of initial size (FIG. 3). […] In this table, mice in Group A (13 mice/group) were treated for 21 days, while mice in Group B (6 mice/group) were a subset of the original group and were treated for an additional 25 days.
The effect of the 21 day treatments on body weight was examined in order to determine if there was the same level of toxicity seen in the first animal study.
The results from the Group B animals were analyzed separately.
Male Ncr immunodeficient mice (6 to 7 weeks old) were obtained from Taco Farms (Germantown, N.Y.). The animals were housed in sterile filter-capped microisolator cages and provided with sterilized food and water. Prostate cancer cells (2×10^6 cells/0.1 ml/mouse) suspended in 50% matrigel (Collaborative Research, Bedford, Mass.) in RPMI 1640 medium were injected subcutaneously into the right flank of the mice. After 4 to 6 weeks, mice with well-established tumors (0.65 to 1 cm by 0.65 to 1 cm) were used for the various experiments. In all experiments, animals received the same volume of injections (5 μl/g body weight). Tumor size and body weight were measured daily. At the end of a study, mice were sacrificed by decapitation, tumors were excised, weighed, and placed in phosphate-buffered formalin for 48 hr at room temperature and then placed in ethanol for 48 hr before preparing paraffin sections.

LNCaP cells [4] = test: Flow cytometry (propidium iodide): cell cycle distribution and apoptosis in cultured LNCaP cells; type: cell-based, human; conditions: for apoptotic cells (percent of pre-G0/G1 cells): single drug, TPA 0.16 or 0.32 nM
Method: as §1, with “ATRA was obtained from Sigma Chemical Co. (St. Louis, Mo.).” left out
To perform the analysis, 1×10^6 cells were washed with phosphate-buffered saline (PBS) and resuspended in 500 μl of stain solution (20 mg/ml polyethylene glycol 8000, 50 μg/ml propidium iodide, 0.1% Triton-X-100, and 0.4 M sodium chloride). The mixture was incubated at 4° C. overnight in the dark before being analyzed on a Coulter Epics-Profile II flow cytometer. Propidium iodide is a fluorescent dye that intercalates into the DNA double helix. Whether cells are in the G1 phase where they have two copies of their genome or in the G2/M phase where they have 4 copies of their genome, or in the S phase where their DNA is between the two states, can be determined by the amount of propidium iodide that intercalates into the DNA. Pre G0/G1 cells were considered apoptotic cells. The proportion of cells in each phase of the cell cycle was calculated using the cytologic software provided.

[5] = Blood levels of TPA after i.p. injection in NCr mice (HL-60 differentiation bioassay); type: in vivo, male NCr mice
Method: Immunodeficient male NCr mice were used as they are a well-established mouse model for examination of human tumor cell growth. […] TPA was administered in a vehicle that consisted of propylene glycol, polysorbate 80, benzyl alcohol, ethanol, and water (40:0.5:1:10:48.5). Peak blood levels of TPA were in the range of 3 ng/ml (4.8 nM) after a 200 ng/g injection and 1 ng/ml (1.7 nM) after a 100 ng/g injection.
The concentration of TPA in blood after an i.p. injection of TPA was measured by a bioassay that quantifies ethyl acetate-extractable differentiating activity in blood (Cui, X. X. et al. 2002. Oncol. Res. 13:169-174). Differentiating activity was measured in HL-60 cells. […] Although blood levels of bioactive material are expressed as ng of TPA/ml blood, the assay could include biologically active metabolites.

LNCaP tumors [6] = test: First in vivo study: TPA i.p. in NCr mice with LNCaP tumors, 13 days; parameters: species or system male NCr mice
Method: With the feasibility of the use of TPA by i.p. injection now established, male NCr mice were injected subcutaneously with LNCaP cells in matragel. […] On day 3, the dose of TPA was increased (0.32 nmol/g; 5 μl vehicle/g body weight) and this dose level was administered i.p. for 11 days. The length and width of each tumor was measured at the start of the study and during treatment with TPA. Tumor size was expressed as cm^2 (length×width). There was a statistically significant inhibition of tumor cell growth in the TPA treated animals. The average tumor size in the vehicle-treated control group increased to about 200% of the initial tumor size while the average tumor size after 13 days of treatment with TPA was about 95% of the initial tumor size.
as §2

[7] = doses of TPA in the range of 0.25 to 1 mg; cited from earlier work
[8] = TPA 0.32 nM, ATRA 1 μM, 96 hours
[9] = entire 46 day treatment interval (Group B), ATRA 0.5 nmol/g
[10] = Treatment for 48 Hours, TPA 1 ng/ml, Taxol 5 ng/ml
[11] = Treatment for 96 Hours, TPA 1 ng/ml, Taxol 5 ng/ml

SMILES	# Visible Cells (1 × 10^5) (LNCaP cells [1]; [8])	effect on LNCaP cell growth (FIG. 2) (LNCaP cells [1])	% Caspase 3 Positive Cells (LNCaP tumors [2]) [%]	% Mitotic Cells (LNCaP tumors [2]) [%]	% of Mice with Tumor Growth (LNCaP tumors [3]; Group A, 21 days) [%]	% of Mice with Tumor Regression (LNCaP tumors [3]; Group A, 21 days) [%]	% of Mice with Tumor Growth (LNCaP tumors [3]; Group B, 46 days) [%]	% of Mice with Tumor Regression (LNCaP tumors [3]; Group B, 46 days) [%]	percent of initial tumor size (LNCaP tumors [3]; [9]) [%]	% Apoptotic Cells (LNCaP cells [4]; [8]) [%]	% Cells in G0/G1 (LNCaP cells [4]; [8]) [%]	% Cells in G2/M (LNCaP cells [4]; [8]) [%]	% Cells in S (LNCaP cells [4]; [8]) [%]	apoptotic cells (percent of pre-G0/G1 cells) (LNCaP cells [4]; 96 hours, ATRA 1 μM)	# Visible Cells (1 × 10^5) (LNCaP cells [1]; [10])	# Visible Cells (1 × 10^5) (LNCaP cells [1]; [11])	% Apoptotic Cells (LNCaP cells [4]; [10]) [%]	% Cells in G0/G1 (LNCaP cells [4]; [10]) [%]	% Cells in G2/M (LNCaP cells [4]; [10]) [%]	% Cells in S (LNCaP cells [4]; [10]) [%]	also measured
CC1=C(/C=C/C(C)=C/C=C/C(C)=C/C(=O)O)C(C)(C)CCC1 [ATRA, all-trans-retinoic acid]	11.1 1 × 10^5	little effect on LNCaP cell growth	0.35 ± 0.03	0.54 ± 0.04	69	31	83	17	159.2±27.0	3.5	73.3	8.2	14.8	same low level of apoptotic cells	–	–	–	–	–	–	rate of tumor growth at later time intervals (FIG. 5) (LNCaP tumors [3]; Group B, 46 days, ATRA 0.5 nmol/g): about the same rate as tumors in the vehicle control group
CCCCCCCCCCCCCC(=O)O[C@@H]1[C@@H](C)[C@@]2(O)[C@@H](C=C(CO)C[C@]3(O)C(=O)C(C)=C[C@@H]23)[C@@H]2C(C)(C)[C@]12OC(C)=O [TPA, 12-O-tetradecanoylphorbol-13-acetate]	6.9 1 × 10^5	slight inhibitory effect on cell growth	0.45 ± 0.03	0.50 ± 0.05	38	62	33	67	106.1±21.0	5.4	69.7	8.7	15.9	same low level of apoptotic cells	3.7 1 × 10^5	3.2 1 × 10^5	10.1	77.8	5.5	13.0	peak blood level of TPA ([5]; after a 100 ng/g i.p. injection): ~1 ng/ml and ~1.7 nM; peak blood level of TPA ([5]; after a 200 ng/g i.p. injection): about 3 ng/ml and ~4.8 nM; time of peak blood levels ([5]; i.p. 100 or 200 ng TPA per gram of body weight): 30 to 60 min; TPA in blood at 8, 12 or 24 hours ([5]; i.p. injection of 100 ng/g TPA): No TPA was detectable; TPA in blood at 8 and 24 hours ([5]; i.p. injection of 200 ng/g TPA): Measurable blood levels of TPA; half-life of TPA ([5]; i.p., NCr mice): 3 to 6 h; apoptotic cell morphology (LNCaP cells [1]; 3.2 nM TPA): morphologically distinct apoptotic cells; Ratio of Mitotic Cells/Caspase 3 Cells (LNCaP tumors [2]): 1.13 ± 0.11; toxicity (LNCaP tumors [6]; 13 days, TPA 0.16 then 0.32 nmol/g i.p. once a day): excessive toxicity (decreased body weight and one death on day 14 of the study); average tumor size, % of the initial tumor size (LNCaP tumors [6]; after 13 days, TPA 0.16 nmol/g for 2 days then 0.32 nmol/g for 11 days, i.p.): about 95%; toxicity in humans [7]: only vein irritation and transient fever, and an occasional incidence of transient dyspnea; percent of initial tumor size (LNCaP tumors [3]; 21 days, once a day i.p., ATRA 0.5 nmol/g): 96.4±3.1%; effect on body weight (LNCaP tumors [3]; treated for 46 days): significant decreases in body weight; % Apoptotic Cells (LNCaP cells [4]; [11]): 11.2%; % Cells in G0/G1 (LNCaP cells [4]; [11]): 66.7%; % Cells in G2/M (LNCaP cells [4]; [11]): 9.5%; % Cells in S (LNCaP cells [4]; [11]): 12.3%
CC(=O)O[C@H]1C(=O)[C@@]2(C)[C@H]([C@H](OC(=O)c3ccccc3)[C@]3(O)C[C@H](OC(=O)[C@H](O)[C@@H](NC(=O)c4ccccc4)c4ccccc4)C(C)=C1C3(C)C)[C@]1(OC(C)=O)CO[C@@H]1C[C@@H]2O [Taxol, paclitaxol]	–	–	–	–	–	–	–	–	–	–	–	–	–	–	4.6 1 × 10^5	2.5 1 × 10^5	12.9	73.0	6.4	12.8	% Apoptotic Cells (LNCaP cells [4]; [11]): 28.4%; % Cells in G0/G1 (LNCaP cells [4]; [11]): 49.7%; % Cells in G2/M (LNCaP cells [4]; [11]): 8.7%; % Cells in S (LNCaP cells [4]; [11]): 12.4%
